Test results reported in PMC7830597, “Derivatives of Tenuazonic Acid as Potential New Multi-Target Anti-Alzheimer’s Disease Agents” (Biomolecules, 2021).

Columns and labels:
[1] = molecular target: T1, Aβ1-42 (Homo sapiens, UniProt P05067); experiment: biochemical; settings: Aβ1-42; inhibitor 40 µM; SEM < 10%; read-out: Inhib. Aβ Aggreg. Self-Induced
T1 construct: Amyloid β peptide (Aβ1-42) was purchased from GeneCust as a lyophilised powder; purchased GeneCust
Method: The anti-amyloidogenic activity of all the compounds was also evaluated in vitro, in the absence and in presence of Cu(II), by measuring the fluorescence emission of Thioflavin T (ThT).
The spectrofluorimetric method, based on the fluorescence emission of thioflavin T (ThT), was used to study the Aβ1-42 aggregation inhibition. Firstly, Aβ1-42 was dissolved in HFIP (1,1,1,3,3,3-Hexafluoro-2-propanol) and kept overnight at room temperature in order to obtain a dry film. […] The ligand solutions were prepared with MeOH (1mg/mL) and further with phosphate buffer. […] As a control, a solution of 30 μL of phosphate buffer and 30 μL of Aβ1-42 was used to observe the aggregation without any inhibition, while the ligand assay solutions were composed of 20 μL of phosphate buffer, 30 μL of Aβ1-42 and 10 μL of ligand. The Cu-induced aggregation studies were similarly conducted, adding 10 μL of CuCl2 to induce the fibril aggregation. Each experiment was composed of an assay and a blank sample, where the blank sample lacks Aβ1-42, to monitor the effect of the compounds on the fluorescence emission. The samples were left to incubate in a CERTOMAT WR water bath for 24 h at 37 °C with shaking. After 24 h, a Glycine-NaOH buffer (pH = 8.5) containing ThT were added to each sample in a microplate. The fluorescence signal was monitored at 446 nm (λexc) and 486 nm (λem) with a Varian Cary Eclipse fluorimeter. Amyloid β peptide (Aβ1-42) was purchased from GeneCust as a lyophilised powder and stored at −20 °C [12, 13, 14].

[2] = tested on: SH-SY5Y human neuroblastoma cells; experiment: Dose-response cell viability screening, MTT reduction assay; type: cell-based; settings: for cytotoxicity on SH-SY5Y cell line: 10 μM to 100 μM, 24 h, at the active concentrations; for highest non-toxic concentration (selected concentration): SH-SY5Y cells exposed for 25 h
Method: SH-SY5Y human neuroblastoma cells (ATCC-CRL-2266) were seeded in DMEM/F12 (Dulbecco’s Modified Eagle Medium/Ham’s F-12 Nutrient Mixture; Thermo Fisher Scientific) with 10% heat inactivated fetal bovine serum, 50 U/mL penicillin and 50 U/mL streptomycin under a humidified atmosphere with 95% relative humidity at 37 °C at a 0.16 × 10^6 cells/mL density. Stock solutions from tested compounds (1, 2, 4 and 5) were prepared in DMSO at a 25 mM concentration and stored at −20 °C until needed. In order to select the highest non-toxic concentration, a dose-response screening was performed, where SH-SY5Y cells were exposed to the compounds for 25 h. The selected concentrations for each compound were: 75 µM final concentration for 1 and 2; 10 µM final concentration for 4 and 20 µM final concentration for 5. […] For the neuroprotection assays, the selected compounds were added to the cell media 1 hour prior to the incubation with Aβ1-42 or L-ascorbic acid/ferrous sulphate. Aβ1-42 or L-ascorbic acid/ferrous sulphate treatment was maintained for another 24 h. Aβ1-42 was prepared as 276.9 µM stock in sterile water and administrated in the medium at a 2.5 µM final concentration. Ferrous sulphate was freshly prepared as 0.36 M stock in water and added to the medium at 2.5 mM final concentration. L-ascorbic acid was freshly prepared as 80 mM stock in water and added to the medium at 5 mM final concentration. Aβ1-42 was purchased from Bachem (Torrance, CA, USA) and ferrous sulphate and L-ascorbic acid from Sigma Chemical Co (St. Louis, MO, USA).
Cell viability was measured by using the MTT (3-(4,5-dimethylthiazol-2-yl)-2,5-diphenyl tetrazolium bromide) reduction assay. This test is based on the presence of succinate dehydrogenase enzyme in viable cells, that allows them to metabolize MTT into a formazan. After treatment, the medium was removed, and cells were washed with 1x PBS one time to remove dead cells. 200 µL of MTT solution (0.5 mg/mL) was added to each well and incubated for 2 h protected from light. Formazan precipitates were then dissolved in DMSO and absorbance measured at 570 nm. The ability to reduce MTT was expressed as a percentage of untreated control cells.
Figure 10 Dose-response screening of compounds 1, 2, 4 and 5 on SH-SY5Y neuronal cell line. Overnight cultures were treated with a range of concentrations from 10 μM to 100 μM for 24 h and cellular viability was determined by employing the MTT reduction assay.

[3] = molecular target: T1, Aβ1-42; experiment: Inhibition of Cu2+-induced Aβ1-42 aggregation, thioflavin T fluorescence; type: biochemical; settings: inhibitor 40 µM, copper 40 µM, read-out: Inhib. Aβ Aggreg. Cu2+-Induced
Method: The anti-amyloidogenic activity of all the compounds was also evaluated in vitro, in the absence and in presence of Cu(II), by measuring the fluorescence emission of Thioflavin T (ThT). […] The Aβ self-aggregation inhibitory activity shown by all compounds is higher than that of parent compound TA, with the exception of compound 2 (probably due to solubility issues at the experimental conditions of the assays). The fact that the reference value previously reported by us for TA (50 ± 8%) was obtained for quite different conditions, including a much higher inhibitor concentration (100 μM instead of 40 μM) is noteworthy. […] This may be due to different electronic contributions between the ketone and the ester functions. Therefore, the ester derivatives seem to be better chelators compared to TA.
The spectrofluorimetric method, based on the fluorescence emission of thioflavin T (ThT), was used to study the Aβ1-42 aggregation inhibition. Firstly, Aβ1-42 was dissolved in HFIP (1,1,1,3,3,3-Hexafluoro-2-propanol) and kept overnight at room temperature in order to obtain a dry film. Then, the film was re-dissolved in CH3CN-Na2CO3 (300μM)/NaOH (250μM) (48.3/48.3/3.4 mL v/v/v) and then phosphate buffer (pH = 8) was added. The ligand solutions were prepared with MeOH (1mg/mL) and further with phosphate buffer. For the inhibition studies of copper-induced Aβ aggregation, a solution of CuCl2 240 μM was used. As a control, a solution of 30 μL of phosphate buffer and 30 μL of Aβ1-42 was used to observe the aggregation without any inhibition, while the ligand assay solutions were composed of 20 μL of phosphate buffer, 30 μL of Aβ1-42 and 10 μL of ligand. The Cu-induced aggregation studies were similarly conducted, adding 10 μL of CuCl2 to induce the fibril aggregation. Each experiment was composed of an assay and a blank sample, where the blank sample lacks Aβ1-42, to monitor the effect of the compounds on the fluorescence emission. The samples were left to incubate in a CERTOMAT WR water bath for 24 h at 37 °C with shaking. After 24 h, a Glycine-NaOH buffer (pH = 8.5) containing ThT were added to each sample in a microplate. The fluorescence signal was monitored at 446 nm (λexc) and 486 nm (λem) with a Varian Cary Eclipse fluorimeter. Amyloid β peptide (Aβ1-42) was purchased from GeneCust as a lyophilised powder and stored at −20 °C [12, 13, 14].

T1 sequence (P05067 672-713 limits assumed): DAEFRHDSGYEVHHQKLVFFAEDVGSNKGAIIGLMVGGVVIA

SMILES	inhibition at 40 µM [1] [%]	cytotoxicity on SH-SY5Y cell line [2]	highest non-toxic concentration (selected concentration) [2] [µM]	inhibition at 40 µM [3] [%]
CCOC(=O)C1=C(O)C(Cc2ccccc2)NC1=O (centres unmarked) [Compound 2, Ethyl 5-benzyl-4-hydroxy-2-oxo-2,5-dihydro-1H-pyrrole-3-carboxylate]	12.4	do not show (except for compound 4) cytotoxicity	75	28.2
CCOC(=O)C1=C(O)C(C(C)C)NC1=O (centres unmarked) [Compound 1, Ethyl 4-hydroxy-5-isopropyl-2-oxo-2,5-dihydro-1H-pyrrole-3-carboxylate]	32.9	do not show (except for compound 4) cytotoxicity	75	36.6
